Settings: 101.33 kPa, Liquid, Concentric cylinders viscometry

OCC(O)CO [glycerol]
Settings	viscosity [mPa·s]
292.89 K	1470
298.1 K	970.6
302.59 K	645.8
312.81 K	305.3
323.88 K	147.4
333.15 K	84.71
343.8 K	49.83
353.67 K	31.8
364.12 K	21.05
374.38 K	14.74
383.29 K	11
394.08 K	8.32

— the NIST ThermoML archive (doi:10.1016/j.jct.2017.05.042)
